# Results: patent US10301344B2, “L-proline complex of sodium-glucose cotransporter 2 inhibitor, monohydrate and crystal form thereof” (Jiangsu Hengrui Medicine Co., Ltd., priority 2014, dated 2019)
# Assay: Development form properties of the free compound and the complex (hygroscopicity, stability)
"hygroscopic properties (free compound, background statement)",Compound,stability in comparison to the free compound
,"1,6-anhydro-1-C-{4-chloro-3-[(3-fluoro-4-ethoxyphenyl)methyl]phenyl}-5-C-(hydroxymethyl)-β-L-idopyranose L-proline complex [complex of formula (I)]",improved stability
hygroscopic,"CCOc1ccc(Cc2cc(C34OC[C@](CO)(O3)C(O)[C@H](O)C4O)ccc2Cl)cc1F (stereo in doubt) [1,6-anhydro-1-C-{4-chloro-3-[(3-fluoro-4-ethoxyphenyl)methyl]phenyl}-5-C-(hydroxymethyl)-β-L-idopyranose]",
